System: P12-Ichikawa
Assay: cell viability relative to DMSO control; higher = less cytotoxic
Conditions: 48 h
Procedure, shortened: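 Viability, reported as a per-plate percentage of DMSO wells with cell-free wells as background, came from CellTiter-Glo One luminescence. Reading took place after 48 h at 37°C. Before that, NOMO1 or SEM (500 cells/well) or P12-Ichikawa (1000 cells/well) leukemia cells, adapted for at least four passages in each medium, were seeded in 1536-well plates (5 μl) and pin-dosed with library compounds in DMSO, 47 μM to 0.79 nM over 11 threefold points.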

[1] = HPLM + 10% dialyzed FBS, 0.000781 µM
[2] = HPLM + 10% dialyzed FBS, 0.00234 µM
[3] = HPLM + 10% dialyzed FBS, 0.00702 µM
[4] = HPLM + 10% dialyzed FBS, 0.0211 µM
[5] = HPLM + 10% dialyzed FBS, 0.0632 µM
[6] = HPLM + 10% dialyzed FBS, 0.19 µM
[7] = HPLM + 10% dialyzed FBS, 0.569 µM
[8] = HPLM + 10% dialyzed FBS, 1.71 µM
[9] = HPLM + 10% dialyzed FBS, 5.12 µM
[10] = HPLM + 10% dialyzed FBS, 15.4 µM
[11] = HPLM + 10% dialyzed FBS, 46.1 µM
[12] = RPMI 5 mM glucose + 10% FBS, 0.000781 µM
[13] = RPMI 5 mM glucose + 10% FBS, 0.00234 µM
[14] = RPMI 5 mM glucose + 10% FBS, 0.00702 µM
[15] = RPMI 5 mM glucose + 10% FBS, 0.0211 µM
[16] = RPMI 5 mM glucose + 10% FBS, 0.0632 µM
[17] = RPMI 5 mM glucose + 10% FBS, 0.19 µM
[18] = RPMI 5 mM glucose + 10% FBS, 0.569 µM
[19] = RPMI 5 mM glucose + 10% FBS, 1.71 µM
[20] = RPMI 5 mM glucose + 10% FBS, 5.12 µM
[21] = RPMI 5 mM glucose + 10% FBS, 15.4 µM
[22] = RPMI 5 mM glucose + 10% FBS, 46.1 µM
[23] = RPMI 5 mM glucose + 10% dialyzed FBS, 0.000781 µM
[24] = RPMI 5 mM glucose + 10% dialyzed FBS, 0.00234 µM
[25] = RPMI 5 mM glucose + 10% dialyzed FBS, 0.00702 µM
[26] = RPMI 5 mM glucose + 10% dialyzed FBS, 0.0211 µM
[27] = RPMI 5 mM glucose + 10% dialyzed FBS, 0.0632 µM
[28] = RPMI 5 mM glucose + 10% dialyzed FBS, 0.19 µM
[29] = RPMI 5 mM glucose + 10% dialyzed FBS, 0.569 µM
[30] = RPMI 5 mM glucose + 10% dialyzed FBS, 1.71 µM
[31] = RPMI 5 mM glucose + 10% dialyzed FBS, 5.12 µM
[32] = RPMI 5 mM glucose + 10% dialyzed FBS, 15.4 µM
[33] = RPMI 5 mM glucose + 10% dialyzed FBS, 46.1 µM

SMILES	cell viability [1] [%]	cell viability [2] [%]	cell viability [3] [%]	cell viability [4] [%]	cell viability [5] [%]	cell viability [6] [%]	cell viability [7] [%]	cell viability [8] [%]	cell viability [9] [%]	cell viability [10] [%]	cell viability [11] [%]	cell viability [12] [%]	cell viability [13] [%]	cell viability [14] [%]	cell viability [15] [%]	cell viability [16] [%]	cell viability [17] [%]	cell viability [18] [%]	cell viability [19] [%]	cell viability [20] [%]	cell viability [21] [%]	cell viability [22] [%]	cell viability [23] [%]	cell viability [24] [%]	cell viability [25] [%]	cell viability [26] [%]	cell viability [27] [%]	cell viability [28] [%]	cell viability [29] [%]	cell viability [30] [%]	cell viability [31] [%]	cell viability [32] [%]	cell viability [33] [%]
Nc1nc(N)c(N=O)c(OCC2CCCCC2)n1	89.4	90.3	88.9	90.6	97.6	92.2	88.3	81.1	75.6	60.6	40.1	86	87.3	86.9	93	98.2	95.3	84.6	78.7	53.8	45	34.7	84.8	89.2	85	86.9	100	88.5	91.3	72.3	59	48.9	35.9
Cc1cnc(Nc2ccc(CN3CCOCC3)cc2)nc1Nc1cccc([S+](=O)([O-])NC(C)(C)C)c1	80	81.1	81.2	82.7	89.1	80.3	83.6	77.3	9.27	3.06	1.03	81.2	83.3	83.8	84.9	87.7	74.2	67.9	76.2	22.9	5.69	3.76	69.9	84.2	74.6	81.3	81	72.6	75	71.6	31.2	6.47	5.08
CC(C)(C)OC(=O)Nc1ccc(-c2cc(C(=O)NCCCCCCC(=O)NO)no2)cc1	90.9	94.6	92.3	95.2	93.3	92.5	92.8	45.8	40.7	4.57	4.67	87.8	85.6	87	88.1	80.1	80	84.8	32.5	35.3	3.1	3.16	88.4	90.5	83.7	86.6	82.6	85.4	83	9.73	7.46	3.76	3.52
C[C@H]1Oc2cc(cnc2N)-c2c(nn(C)c2C#N)CN(C)C(=O)c2ccc(F)cc21	118	120	119	120	120	124	122	110	112	112	96.3	120	122	123	113	123	119	119	112	114	114	105	–	–	–	–	–	–	–	–	–	–	–
CC(C)n1cnc2c(NCCc3ccc(O)cc3)nc(-c3csc4ccccc34)nc21	105	111	109	114	119	115	107	117	24.9	6.01	2.93	106	108	116	107	116	112	116	129	125	53.5	3.44	98.3	109	112	112	119	114	118	119	130	38.6	2.43
OCCN(CCO)c1nc(N2CCCCC2)c2nc(N(CCO)CCO)nc(N3CCCCC3)c2n1	113	110	118	114	114	113	109	107	107	98	75	108	108	113	111	119	113	110	106	109	109	68.2	113	105	111	106	117	106	105	101	103	101	58.4
CN(C(Cc1ccc(O[S+](=O)([O-])c2cccc3cnccc23)cc1)C(=O)N1CCN(c2ccccc2)CC1)[S+](=O)([O-])c1cccc2cnccc12 (stereo not drawn)	102	103	106	110	114	105	114	102	93.1	89.2	70.5	107	110	109	106	108	103	103	97.7	90.6	71.8	57.3	104	108	105	121	109	105	113	97.8	102	84.8	58.7
C[N]1N=CC=C1C/2=C(\C)N(C(=O)C(=C2)/C(=O)NCC3=NC=C(C=C3)[S+](C)([O-])=O)C4=CC=CC(=C4)C(F)(F)F	107	104	106	104	107	107	105	101	98.3	96.8	88.5	105	102	109	109	112	93	106	97.3	92	91.1	99.2	108	105	112	105	106	95	110	103	102	91.7	97.5
COc1ccc([S+](=O)([O-])Nc2cccnc2Nc2ccc(O)cc2)cc1	124	118	124	119	122	125	129	122	17.2	14.8	10.8	125	121	116	126	120	119	118	122	22.3	17.7	17.3	117	128	118	114	121	113	108	113	39	28	24
CN1CCN(CCCN2c3ccccc3Sc3ccc(Cl)cc32)CC1.O=C(O)/C=C\C(=O)O.O=C(O)/C=C\C(=O)O	108	108	105	105	106	107	114	99	108	36.1	34.8	119	110	125	126	119	137	122	112	114	29.5	31.2	106	105	106	108	116	112	111	110	104	28.1	32.1
COC(=O)Nc1nc2ccc([S+]([O-])c3ccccc3)cc2[nH]1 (stereo not drawn)	109	119	111	114	111	116	122	119	95.5	55.5	86	100	115	103	119	118	120	115	135	110	74.4	92.4	118	120	117	118	124	118	128	122	117	95	97.4
CN(C)CCc1c[nH]c2ccc(C[S+](=O)([O-])N3CCCC3)cc12	104	105	110	114	114	113	114	111	107	110	84.4	106	110	110	116	109	115	118	111	111	99.8	87.5	97.1	101	108	106	113	107	117	113	104	96	84.2
C=CC(=O)Nc1ccc2ncnc(Nc3ccc(OCc4cccc(F)c4)c(Cl)c3)c2c1	97	111	104	105	113	109	97.2	105	85.1	10.7	10.7	97.3	105	109	105	110	107	118	103	83.1	13.4	12.3	97.1	111	117	122	111	118	116	107	81	21.4	16.4
Cc1cccc(-c2[nH]c(C(C)(C)C)nc2-c2ccc3c(c2)OCO3)n1	105	109	110	107	102	105	110	105	100	17.5	11.1	98.4	102	92.8	106	96.9	97	94.1	96.2	98.6	14	8.01	102	112	–	108	101	101	106	95.9	96	37.1	19.6
OC[C@H]1OC(OC2=CC3=C(C(=C2)O)C(=O)\C(=C/O3)C4=CC=C(O)C=C4)[C@H](O)[C@@H](O)[C@@H]1O (stereo partly drawn)	87.8	90.5	91.9	81.5	86.2	86.9	86.1	84.1	76	80.5	81.3	76.4	89.3	83.8	88.7	95.2	83.2	82.9	78	79	82.4	85.6	82.5	85.1	90.6	88.1	86	82.9	69.3	86.3	71.7	79.7	80
